Where two headings read alike, the source gives them in different places.
What was measured:
[1] = target: T1, KDM4C (Homo sapiens, UniProt Q9H3R0); test: KDM4C AlphaScreen assay; format: biochemical
T1 construct: Full length of KDM5B and KDM4C protein were purchased from Active Motif; purchased Active Motif 31858
T1 sequence (Q9H3R0 1-1056): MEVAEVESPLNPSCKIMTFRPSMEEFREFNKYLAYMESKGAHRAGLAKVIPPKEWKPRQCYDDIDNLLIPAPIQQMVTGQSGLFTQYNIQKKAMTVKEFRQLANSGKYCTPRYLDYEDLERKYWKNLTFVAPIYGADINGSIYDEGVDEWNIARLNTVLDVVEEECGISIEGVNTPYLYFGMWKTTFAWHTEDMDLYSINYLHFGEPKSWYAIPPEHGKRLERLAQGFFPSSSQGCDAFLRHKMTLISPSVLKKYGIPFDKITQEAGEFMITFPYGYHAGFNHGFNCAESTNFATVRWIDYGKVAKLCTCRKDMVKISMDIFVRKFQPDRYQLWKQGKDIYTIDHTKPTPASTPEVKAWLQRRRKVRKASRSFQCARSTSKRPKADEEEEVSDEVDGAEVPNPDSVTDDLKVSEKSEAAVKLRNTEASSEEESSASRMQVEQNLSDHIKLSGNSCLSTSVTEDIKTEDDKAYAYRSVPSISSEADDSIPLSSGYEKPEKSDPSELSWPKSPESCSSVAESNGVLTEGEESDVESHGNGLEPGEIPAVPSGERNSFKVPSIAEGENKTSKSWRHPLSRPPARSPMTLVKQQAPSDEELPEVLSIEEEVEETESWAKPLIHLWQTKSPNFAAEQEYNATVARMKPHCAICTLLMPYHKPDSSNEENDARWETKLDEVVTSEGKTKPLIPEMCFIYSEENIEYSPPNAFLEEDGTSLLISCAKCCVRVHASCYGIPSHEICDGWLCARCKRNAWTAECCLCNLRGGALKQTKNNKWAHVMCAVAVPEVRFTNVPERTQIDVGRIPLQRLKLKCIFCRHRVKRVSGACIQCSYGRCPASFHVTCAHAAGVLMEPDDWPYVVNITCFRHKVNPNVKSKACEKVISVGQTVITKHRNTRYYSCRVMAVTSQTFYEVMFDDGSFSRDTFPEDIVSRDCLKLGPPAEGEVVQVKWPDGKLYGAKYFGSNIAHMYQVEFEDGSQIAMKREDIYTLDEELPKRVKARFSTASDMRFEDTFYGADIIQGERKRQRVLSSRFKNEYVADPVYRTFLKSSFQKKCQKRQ
Experimental: (§1) KDM4C and KDM5B AlphaScreen Assay Material and Method
(§2) Compounds disclosed herein were (and can be) screened using the following assay.
Peptides used in all experiments were purchased from Anaspe. Full length of KDM5B and KDM4C protein were purchased from Active Motif: KDM5B (cat#31832) and KDM4C (Cat #31858). Final concentration of KDM5B and KDM4C used in the assay were 0.5 nM and 0.2 nM. Final concentration of peptides for 5B and 4C used in the assay were 3 nM.
AlphaScreen assays was conducted as following protocol: buffer used to make compound plate or DMSO is composed of 50 mM HEPES pH 7.4, 0.003% Tween-20; buffer used to dilute enzyme is composed of 50 mM HEPES pH 7.4, 0.003% Tween-20, 0.01% BSA, 500 μM TCEP; and buffer used to dilute the substrate is composed of 50 mM HEPES pH 7.4, 0.003% Tween-20, (NH4)2Fe(SO4)2 15 μM, alpha-ketoglutaric acid 4 μM and L-ascorbic acid 100 μM. 4 μL of KDM5B or KDM4C protein were added to 384-well OptiPlate by using multiflow, followed by 4 μl of either buffer or compound. Plates were sealed, spun down and incubated at RT for 15 min. 4 μl of biotinylated peptide was added to the plate, the plate was incubated at room temperature for 25 minutes (KDM5B) and 30 minutes (KDM4C) after sealed and spun down. Streptavidin donor beads and acceptor beads were diluted and mixed in the detection buffer with 7.5 mM EDTA, followed by adding 8 μl of acceptor and donor beads mix to the plate, before the plate was sealed and incubated at room temperature for 3 h or overnight at dark. The plate was read on Envision plate reader (PerkinElmer) using Alphascreen protocol. IC50s were calculated in GraphPad Prism 6.

[2] = target: T2, KDM5B (Homo sapiens, UniProt Q9UGL1); test: biochemical
T2 construct: Full length of KDM5B and KDM4C protein were purchased from Active Motif; purchased Active Motif 31832
Experimental: as §1, §2
Peptides used in all experiments were purchased from Anaspe. […] Final concentration of KDM5B and KDM4C used in the assay were 0.5 nM and 0.2 nM. Final concentration of peptides for 5B and 4C used in the assay were 3 nM.
4 μL of KDM5B or KDM4C protein were added to 384-well OptiPlate by using multiflow, followed by 4 μl of either buffer or compound. Plates were sealed, spun down and incubated at RT for 15 min. 4 μl of biotinylated peptide was added to the plate, the plate was incubated at room temperature for 25 minutes (KDM5B) and 30 minutes (KDM4C) after sealed and spun down. Streptavidin donor beads and acceptor beads were diluted and mixed in the detection buffer with 7.5 mM EDTA, followed by adding 8 μl of acceptor and donor beads mix to the plate, before the plate was sealed and incubated at room temperature for 3 h or overnight at dark. The plate was read on Envision plate reader (PerkinElmer) using Alphascreen protocol. IC50s were calculated in GraphPad Prism 6.

[3] = AlphaScreen, full length KDM4C 0.2 nM, biotinylated H3K9Me3 peptide 3 nM, 30 minutes at room temperature

T2 sequence (Q9UGL1 whole entry): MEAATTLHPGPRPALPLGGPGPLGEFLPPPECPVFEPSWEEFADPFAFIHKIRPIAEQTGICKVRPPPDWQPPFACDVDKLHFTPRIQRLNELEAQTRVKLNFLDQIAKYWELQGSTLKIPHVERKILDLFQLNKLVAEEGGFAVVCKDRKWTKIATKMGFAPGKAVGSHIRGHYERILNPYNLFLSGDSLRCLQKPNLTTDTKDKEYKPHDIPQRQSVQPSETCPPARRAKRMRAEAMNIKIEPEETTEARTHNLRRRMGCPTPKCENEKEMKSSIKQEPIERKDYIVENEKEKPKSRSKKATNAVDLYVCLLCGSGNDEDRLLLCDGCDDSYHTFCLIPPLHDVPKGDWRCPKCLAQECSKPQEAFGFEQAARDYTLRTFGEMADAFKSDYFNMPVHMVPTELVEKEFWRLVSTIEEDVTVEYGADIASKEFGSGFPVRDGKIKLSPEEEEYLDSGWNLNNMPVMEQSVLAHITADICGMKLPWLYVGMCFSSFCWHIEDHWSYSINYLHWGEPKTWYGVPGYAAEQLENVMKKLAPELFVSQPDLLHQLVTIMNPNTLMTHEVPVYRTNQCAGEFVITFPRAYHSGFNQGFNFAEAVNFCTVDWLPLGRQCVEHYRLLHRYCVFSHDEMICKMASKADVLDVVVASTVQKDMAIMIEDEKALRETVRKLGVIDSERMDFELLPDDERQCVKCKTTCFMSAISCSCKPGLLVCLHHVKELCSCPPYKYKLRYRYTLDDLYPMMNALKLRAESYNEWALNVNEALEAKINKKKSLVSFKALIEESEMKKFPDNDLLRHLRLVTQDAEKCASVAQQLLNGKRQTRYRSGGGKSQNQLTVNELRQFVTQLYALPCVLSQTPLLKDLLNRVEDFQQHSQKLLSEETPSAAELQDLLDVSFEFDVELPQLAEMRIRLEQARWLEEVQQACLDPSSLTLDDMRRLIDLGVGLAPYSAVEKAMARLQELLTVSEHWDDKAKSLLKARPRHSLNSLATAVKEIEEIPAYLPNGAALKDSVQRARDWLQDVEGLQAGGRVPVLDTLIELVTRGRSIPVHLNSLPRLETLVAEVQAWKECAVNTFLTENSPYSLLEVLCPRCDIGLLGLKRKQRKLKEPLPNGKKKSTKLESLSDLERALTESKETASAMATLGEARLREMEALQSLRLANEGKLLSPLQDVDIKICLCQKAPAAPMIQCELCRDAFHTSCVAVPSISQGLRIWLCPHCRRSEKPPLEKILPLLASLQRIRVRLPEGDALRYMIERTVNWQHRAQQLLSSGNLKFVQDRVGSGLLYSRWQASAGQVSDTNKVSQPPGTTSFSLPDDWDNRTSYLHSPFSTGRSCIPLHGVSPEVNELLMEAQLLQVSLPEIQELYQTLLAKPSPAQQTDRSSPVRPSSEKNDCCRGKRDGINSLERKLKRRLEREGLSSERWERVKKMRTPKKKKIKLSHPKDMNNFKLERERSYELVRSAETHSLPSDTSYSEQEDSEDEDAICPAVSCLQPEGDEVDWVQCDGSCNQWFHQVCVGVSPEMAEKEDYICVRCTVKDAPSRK

SMILES | IC50 [1, 3] [nM] | IC50 [2] [nM] | IC50 ([2]; AlphaScreen, full length KDM5B 0.5 nM, biotinylated H3K4Me3 peptide 3 nM, 25 minutes at room temperature, read-out: KDM5B (IC50)) [nM] | IC50 [1] [nM]
CC(C)c1c(O)nc(-n2ccnc2)nc1-c1cnn(C(C)C)c1 [Example 1, 2-(1H-imidazol-1-yl)-5-isopropyl-6-(1-isopropyl-1H-pyrazol-4-yl)pyrimidin-4-ol] | 1050 | 12 | – | –
CC(C)c1c(O)nc(-n2ccnc2-c2ccccn2)nc1Cl [Example 2, 6-Chloro-5-(propan-2-yl)-2-[2-(pyridin-2-yl)-1H-imidazol-1-yl]pyrimidin-4-ol] | 3890 | 229 | – | –
CC(C)c1c(O)nc(-n2ccnc2-c2ccccn2)nc1-c1cnn(C(C)C)c1 [Example 3, 5-(Propan-2-yl)-6-[1-(propan-2-yl)-1H-pyrazol-4-yl]-2-[2-(pyridin-2-yl)-1H-imidazol-1-yl]pyrimidin-4-ol] | 9680 | 372 | – | –
Cc1nccn1-c1nc(O)c(C(C)C)c(-c2cnn(C(C)C)c2)n1 [Example 4, 5-isopropyl-6-(1-isopropyl-1H-pyrazol-4-yl)-2-(2-methyl-1H-imidazol-1-yl)pyrimidin-4-ol] | 4480 | 125 | – | –
CC(C)c1c(O)nc(-n2ccnc2)nc1-c1cnn(CC(=O)O)c1 [Example 5, 2-(4-(6-Hydroxy-2-(1H-imidazol-1-yl)-5-isopropylpyrimidin-4-yl)-1H-pyrazol-1-yl)acetic acid] | 7450 | 117 | – | –
CC(C)c1c(O)nc(-n2ccnc2)nc1-c1cnn(CC(=O)NCCN2CCCC2)c1 [Example 6, 2-(4-(6-Hydroxy-2-(1H-imidazol-1-yl)-5-isopropylpyrimidin-4-yl)-1H-pyrazol-1-yl)-N-(2-(pyrrolidin-1-yl)ethyl)acetamide] | 214 | 4 | – | –
CC(C)c1c(O)nc(-n2ccnc2)nc1-c1cnn(CC(N)=O)c1 [Example 7, 2-(4-(6-Hydroxy-2-(1H-imidazol-1-yl)-5-isopropylpyrimidin-4-yl)-1H-pyrazol-1-yl)-acetamide] | 1150 | 11 | – | –
CC(C)c1c(O)nc(-n2ccnc2)nc1-c1ccc(C(=O)NCCN(C)C)nc1 [Example 8, N-(2-(dimethylamino)ethyl)-5-(6-hydroxy-2-(1H-imidazol-1-yl)-5-isopropylpyrimidin-4-yl)-picolinamide] | 752 | 8 | – | –
CC(C)c1c(O)nc(-n2ccnc2)nc1-c1ccc(C(N)=O)nc1 [Example 9, 5-(6-hydroxy-2-(1H-imidazol-1-yl)-5-isopropylpyrimidin-4-yl)picolinamide] | 2390 | – | 13 | –
CC(C)c1c(O)nc(-n2ccnc2)nc1C#Cc1cccnc1 [Example 10a, 2-(1H-imidazol-1-yl)-5-(propan-2-yl)-6-[2-(pyridin-3-yl)ethynyl]pyrimidin-4-ol] | 908 | 11 | – | –
CC(C)c1c(O)nc(-n2ccnc2)nc1CCc1cccnc1 [Example 10b, 2-(1H-imidazol-1-yl)-5-(propan-2-yl)-6-[2-(pyridin-3-yl)ethyl]pyrimidin-4-ol] | 1490 | 11 | – | –
CC(C)c1c(O)nc(-n2ccnc2)nc1OCCC1CCN(C)CC1 [Example 11, 2-(1H-imidazol-1-yl)-6-[2-(1-methylpiperidin-4-yl)ethoxy]-5-(propan-2-yl)pyrimidin-4-ol] | 1210 | 7 | – | –
COc1nc(-n2ccnc2)nc(O)c1C(C)C [Example 12, 2-(1H-Imidazol-1-yl)-5-isopropyl-6-methoxypyrimidin-4-ol] | 1460 | 107 | – | –
CC(C)c1c(O)nc(-n2ccnc2)nc1OCCC1CCN(CCCC(F)(F)F)CC1 [Example 13, 2-(1H-imidazol-1-yl)-5-(propan-2-yl)-6-{2-[1-(4,4,4-trifluorobutyl)piperidin-4-yl]ethoxy}pyrimidin-4-ol] | 1140 | 12 | – | –
CC(C)c1c(O)nc(-n2ccnc2)nc1OCCC1CCN(C(=O)CCO)CC1 [Example 14, 3-hydroxy-1-[4-(2-{[6-hydroxy-2-(1H-imidazol-1-yl)-5-(propan-2-yl)pyrimidin-4-yl]oxy}-ethyl)piperidin-1-yl]propan-1-one] | 2010 | 32 | – | –
CC(C)c1c(O)nc(-n2ccnc2)nc1OCC(=O)N1CCN(C)CC1 [Example 16, 2-{[6-hydroxy-2-(1H-imidazol-1-yl)-5-(propan-2-yl)pyrimidin-4-yl]oxy}-1-(4-methylpiperazin-1-yl)ethan-1-one] | – | 26 | – | 5730

More lines, main results first:

IC50 [1, 3] [nM] | IC50 [2] [nM] | IC50 ([2]; AlphaScreen, full length KDM5B 0.5 nM, biotinylated H3K4Me3 peptide 3 nM, 25 minutes at room temperature, read-out: KDM5B (IC50)) [nM] | SMILES | IC50 [1] [nM]
10300 | 651 | – | CC(C)c1c(O)nc(-n2ccnc2)nc1OCC(=O)O [Example 15, 2-{[6-hydroxy-2-(1H-imidazol-1-yl)-5-(propan-2-yl)pyrimidin-4-yl]oxy}acetic acid] | –
9570 | 148 | – | CC(C)c1c(O)nc(-n2ccnc2)nc1OCC(=O)NS(C)(=O)=O [Example 17, 2-{[6-hydroxy-2-(1H-imidazol-1-yl)-5-(propan-2-yl)pyrimidin-4-yl]oxy}-N-methanesulfonylacetamide] | –
2970 | 27 | – | CC(C)c1c(O)nc(-n2ccnc2)nc1NCc1cccnc1 [Example 18, 2-(1H-Imidazol-1-yl)-5-isopropyl-6-((pyridin-3-ylmethyl)amino)pyrimidin-4-ol] | –
1790 | 91 | – | CC(C)c1c(O)nc(-c2cncs2)nc1OCc1cccnc1 [Example 19, 5-(propan-2-yl)-6-(pyridin-3-ylmethoxy)-2-(1,3-thiazol-5-yl)pyrimidin-4-ol] | –
11200 | 100 | – | CC(C)c1c(O)nc(-c2cncs2)nc1-c1cnn(Cc2ccccc2)c1 [Example 20, 6-(1-Benzyl-1H-pyrazol-4-yl)-5-(propan-2-yl)-2-(1,3-thiazol-5-yl)pyrimidin-4-ol] | –
21100 | 1930 | – | Cc1nc(-c2c[nH]cn2)nc(O)c1C(C)C [Example 21, 2-(1H-imidazol-4-yl)-5-isopropyl-6-methylpyrimidin-4-ol] | –
470 | 16 | – | Cc1nc(-n2ccnc2)nc(O)c1C(C)C [Example 22, 2-(1H-imidazol-1-yl)-5-isopropyl-6-methylpyrimidin-4-ol] | –
775 | 24 | – | Cc1nc(-n2ccnc2N)nc(O)c1C(C)C [Example 23, 2-(2-aminoimidazol-1-yl)-5-isopropyl-6-methyl-pyrimidin-4-ol] | –
499 | 45 | – | Cc1nc(-n2cncc2CO)nc(O)c1C(C)C [Example 24a, 2-[5-(hydroxymethyl)imidazol-1-yl]-5-isopropyl-6-methyl-pyrimidin-4-ol] | –

Source: patent US20190135793A1, “HETEROCYCLIC INHIBITORS OF KDM5 FOR THE TREATMENT OF DISEASE” (Board of Regents, The University of Texas System, priority 2017, published 2019)
